Results on seven compounds are retold here after US20230148184A1, “COMPOUNDS AND METHODS FOR MODULATING SPLICING” (REMIX THERAPEUTICS INC., priority 2020, published 2023).

pIC50: −log10 of the molar value.

Type in all cases: cell-based
In one assay the test system is HTT CJ mRNA. The assay can be described thus: Gene panel canonical junction qPCR assay, HTT. The conditions noted are these: decrease in CJ mRNA levels, RT-qPCR. The method, boiled down:
(§1)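 A673 or K562 cells treated 24 h at 37 °C with 11-point 3-fold dilutions (top 10 uM final, DMSO ≤0.25%); lysates analysed by one-step RT-qPCR for canonical-junction mRNA. ΔCt vs GAPDH, GUSB or PPIA housekeeper, normalised to DMSO (ΔΔCt), converted to RQ via 2^(−ΔΔCt) and percentage response.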
For orientation: Real-time PCR tracks product formation cycle by cycle.

Another assay deals with Target C CJ mRNA. The assay can be described thus: Gene panel canonical junction qPCR assay, Target C. The following applies: decrease in CJ mRNA levels, RT-qPCR. A digest of the protocol: as §1
A further assay has as its system HTT mRNA. The assay can be described thus: RT-qPCR splicing assay for HTT mRNA isoforms (canonical junction CJ and alternative junction AJ). The conditions noted are these: A673 or K562 cell line, 24 hours compound treatment; for pIC50: decrease in CJ mRNA; for AC50: increase in AJ mRNA. The method, boiled down:
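A673 (DMEM, 10% FBS) or K562 (IMDM, 10% FBS) cells were treated 24 h at 37 °C with an 11-point 3-fold series, top dose 10 uM, DMSO ≤0.25%. In lysates, HTT CJ and AJ isoforms were quantified by one-step RT-qPCR and normalized to PPIA (A673) or GAPDH/GUSB (K562), at least in duplicate.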

Another assay concerns SMN2 CJ mRNA. The assay can be described thus: Gene panel canonical junction qPCR assay, SMN2. The conditions noted are these: decrease in CJ mRNA levels, RT-qPCR. The method, boiled down: as §1

As a reminder, the pIC50 is the IC50 on a negative log10 scale, so that one unit is a factor of ten. A lower pIC50 goes with a large IC50. Broadly, the AC50 is the concentration giving half of the maximal activity seen. High values mean activity only at high concentration, low ones activity at low concentration. As to `c1cnn(-c2ccc3c(c2)COc2nc(NC4CCNCC4)ccc2-3)c1` [Compound 174], the pIC50 in the assay on HTT CJ mRNA is below 5.00; in the assay with Target C CJ mRNA, below 5.00; in the assay on HTT mRNA, below 5.00; in the assay on SMN2 CJ mRNA it was 5.00 to 6.00. For the same compound, in the assay with HTT mRNA, the AC50 was above 10 µM.
With `[2H]C([2H])([2H])N(c1ccc2c(n1)OCc1cc(-n3cccn3)ccc1-2)C1CC(C)(C)NC(C)(C)C1` [Compound 199], the pIC50 in the assay on HTT CJ mRNA is 5.00 to 6.00; in the assay on Target C CJ mRNA it was below 5.00; with HTT mRNA it was 5.00 to 6.00; in the assay on SMN2 CJ mRNA, 5.00 to 6.00. In the assay with HTT mRNA, the concentration at half-maximal activity (AC50) lay within 1 to 10 µM.
`c1cnn(-c2ccc3c(c2)COc2nc(S[C@@H]4C[C@H]5CC[C@@H](C4)N5)ccc2-3)c1` [Compound 193]: the pIC50 is 5.00 to 6.00 in the assay on HTT CJ mRNA, below 5.00 in the assay on Target C CJ mRNA, below 5.00 in the assay on HTT mRNA and below 5.00 in the assay with SMN2 CJ mRNA. Moreover, the AC50 in the assay with HTT mRNA was above 10 µM.
Consider `Cc1cn(-c2ccc3c(c2)COc2nc(N(C)[C@@H]4C[C@H]5CC[C@@H](C4)N5)ccc2-3)cn1` [Compound 164], for which the pIC50 in the assay on HTT CJ mRNA was above 7.00; with Target C CJ mRNA, 6.00 to 7.00; in the assay on HTT mRNA, above 7.00; in the assay on SMN2 CJ mRNA it was above 7.00. This compound registered an AC50 in the assay with HTT mRNA below 0.1 µM.
Consider `CN(c1ccc2c(n1)COc1cc(-c3cn[nH]c3)ccc1-2)[C@@H]1C[C@H]2CC[C@@H](C1)N2` [Compound 121, (1R,3S,5S)—N-methyl-N-[8-(1H-pyrazol-4-yl)-5H-chromeno[3,4-b]pyridin-3-yl]-8-azabicyclo[3.2.1]octan-3-amine], for which the pIC50 in the assay on HTT CJ mRNA, in the assay on Target C CJ mRNA, with HTT mRNA and in the assay with SMN2 CJ mRNA was 6.00 to 7.00 throughout. In the assay on HTT mRNA, this compound displayed an AC50 of 0.1 to 1 µM.
As for `CN(c1ccc2c(n1)CCOc1cc(-n3cccn3)ccc1-2)C1CC(C)(C)NC(C)(C)C1` [Compound 129, N-methyl-13-(pyrazol-1-yl)-N-(2,2,6,6-tetramethylpiperidin-4-yl)-10-oxa-6-azatricyclo[9.4.0.0^[2,7]]pentadeca-1(11),2(7),3,5,12,14-hexaen-5-amine], the pIC50 in the assay with HTT CJ mRNA, with Target C CJ mRNA, with HTT mRNA and in the assay with SMN2 CJ mRNA was below 5.00 in each case. In the assay with HTT mRNA, this compound came in with an AC50 above 10 µM.
As for `c1cnn(-c2ccc3c(c2)OCc2nc(N[C@@H]4C[C@H]5CC[C@@H](C4)N5)ccc2-3)c1` [Compound 135, (1R,3S,5S)—N-[8-(pyrazol-1-yl)-5H-chromeno[3,4-b]pyridin-3-yl]-8-azabicyclo[3.2.1]octan-3-amine], the pIC50 in the assay with HTT CJ mRNA, in the assay with Target C CJ mRNA, with HTT mRNA and with SMN2 CJ mRNA was 5.00 to 6.00 throughout. For the same compound, in the assay on HTT mRNA, the AC50 was 1 to 10 µM.
